Assays:
[1] = tested on: ts S. typhimurium mutant alleles of the gyrase subunit A; assay: Hypersusceptibility (MIC) of S. typhimurium gyrA ts mutants at semi-permissive temperature; assay type: cell-based, Salmonella typhimurium
Method: As an illustration of the hypersusceptibility profiles for a group of bacterial ts mutant strains, the minimal inhibitory concentrations (MICs) of various drugs and toxic agents were determined for a set of Salmonella typhimurium temperature-sensitive essential gene mutants.
The MICs were measured by using a standard micro broth dilution technique following the recommendations of the National Committee for Clinical Laboratory Standards (1994). Bacteria were first grown in Mueller-Hinton broth at 30° C., diluted to 10^5 cfu/ml and used to inoculate 96-microwell plates containing two-fold dilutions of antibiotics in Mueller-Hinton broth. Plates were incubated for 20 h at a semi-permissive temperature (35° C.) and the MIC was determined as the lowest dilution of antibiotic preventing visible growth.
A two-fold difference in the susceptibility level of the mutant strain compared to that of the parental strain is within the limits of the experimental variation and thus a ≧4-fold decrease in MIC was considered as a significant hypersusceptibility.
The specific hypersensitivity of temperature sensitive mutations in a known target to inhibitors of that target is shown in FIG. 1 with the susceptibility profile of three ts S. typhimurium mutant alleles of the gyrase subunit A (gyrA212, gyrA215 and gyrA216) grown at a semi-permissive temperature (35° C.).

[2] = tested on: Salmonella wild type parent strain; assay: Carbon source utilization profile (gene sensor methodology); assay type: cell-based; conditions: sublethal concentration; carbon source not used by the dapA or murCEFG mutant
Text: The growth conditional mutants are also used in gene sensor methodology, e.g., using carbon utilization profiles. Ts mutants fail to metabolize different carbon sources in semi-permissive growth conditions. The carbon sources not utilized by a specific mutant or group of mutants provide additional phenotypes associated with the crippled essential function. Moreover, some of these carbon source markers were also not used by the wild type strain exposed to sub-MIC concentrations of known drugs affecting the same specific cellular targets or pathways.

[3] = mutant gyrA215, semi-permissive temperature 35° C.
[4] = mutant gyrA222, semi-permissive temperature 35° C.

| Compound | hypersusceptibility compared to wild-type parent strain [1, 3] | hypersusceptibility compared to wild-type parent strain ([1]; mutant gyrA276, semi-permissive temperature 35° C.) | hypersusceptibility compared to wild-type parent strain [1, 4] | carbon source metabolism [2] |
| --- | --- | --- | --- | --- |
| coumermycin | hypersusceptibility | hypersusceptibility | – | – |
| O=C(O)c1cn(C2CC2)c2cc(N3CCNCC3)c(F)cc2c1=O [ciprofloxacin] | – | – | hypersusceptibility | – |
| CCn1cc(C(=O)O)c(=O)c2cc(F)c(N3CCNCC3)cc21 [norfloxacin] | hypersusceptibility | – | hypersusceptibility | – |
| Cn1nnnc1SCC1=C(C(=O)O)N2C(=O)[C@@H](NC(=O)[C@H](O)c3ccccc3)[C@H]2SC1 [cefamandole] | – | – | – | prevented the Salmonella wild type parent strain from metabolizing the same carbon source |

From patent publication US6630303B1, “Methods of screening for compounds active on Staphylococcus aureus target genes” (priority 1995, dated 2003)
